Measurements as given in patent US20050107311A1, “Buffalo milk gangliosides” (priority 2001, published 2005).

Columns and labels:
nar-3, a rotavirus toxin = test: Binding to rotavirus toxin nar-3; details: GD3 from Folch LP vs UP
[1] = target: B-subunit of cholera toxin (CTB) (Vibrio cholerae serotype O1, UniProt P01556)
rotavirus particles = test: Binding to rotavirus particles

B-subunit of cholera toxin (CTB), sequence (P01556 22-124 limits assumed): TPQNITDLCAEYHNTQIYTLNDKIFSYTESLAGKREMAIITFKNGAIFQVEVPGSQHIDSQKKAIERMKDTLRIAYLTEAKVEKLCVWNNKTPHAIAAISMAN

GD3 [GD3 species isolated from the organic LP]
binding to nar-3 (nar-3, a rotavirus toxin): bound to nar-3

GD1a
binding of cholera toxin subunit B (CTB) [1]: not capable of binding the toxin

GM3 [GM3 species]
binding of rotavirus particles (rotavirus particles): bind rotavirus particles

GM1 [GM1 isolated from buffalo milk serum]
binding of cholera toxin subunit B (CTB) [1]: binds to cholera toxin subunit B

GD3 [GD3 isolated from the aqueous UP]
binding to nar-3 (nar-3, a rotavirus toxin): did not bind to this toxin

GM1 [bovine-brain GM1 species]
binding of cholera toxin subunit B (CTB) [1]: bind CTB
